Among the data in patent publication US7544704B2, “Aryl-4-ethynyl-isoxazole derivatives” (Hoffmann-La Roche Inc., priority 2006, dated 2009) are Ki values, retold here.

Molecules are shown by their SMILES.

This test deals with T1, human GABA A receptor α5β3γ2 (Homo sapiens, UniProt P18507+P31644).
T1 construct: expressed in transfected cells; host or cells: HEK293 (transiently transfected), membranes
Kind of test: [3H]flumazenil competition binding to HEK293 cell membranes expressing human GABA A α5β3γ2. The following applies: displacement of [3H]flumazenil (0.5 nM), human α5β3γ2 transiently transfected in HEK293, means of two determinations; read-out: Ki[nM] hα5. As to the method:
Membrane Preparation and Binding Assay
The affinity of compounds at GABA A receptor subtypes was measured by competition for [3H]flumazenil (85 Ci/mmol; Roche) binding to HEK293 cells expressing rat (stably transfected) or human (transiently transfected) receptors of composition α1β3γ2, α2β3γ2, α3β3γ2 and α5β3γ2.
Cell pellets were suspended in Krebs-tris buffer (4.8 mM KCl, 1.2 mM CaCl2, 1.2 mM MgCl2, 120 mM NaCl, 15 mM Tris; pH 7.5; binding assay buffer), homogenized by polytron for ca. 20 sec on ice and centrifuged for 60 min at 4° C. (50000 g; Sorvall, rotor: SM24=20000 rpm). The cell pellets were resuspended in Krebs-tris buffer and homogenized by polytron for ca. 15 sec on ice. Protein was measured (Bradford method, Bio-Rad) and aliquots of 1 mL were prepared and stored at −80° C.
Radioligand binding assays were carried out in a volume of […] (96-well plates) which contained […] of cell membranes, [3H]flumazenil at a concentration of 1 nM for α1, α2, α3 subunits and 0.5 nM for a5 subunits and the test compound in the range of […]. Nonspecific binding was defined by 10^−5 M diazepam and typically represented less than 5% of the total binding. Assays were incubated to equilibrium for 1 hour at 4° C. and harvested onto GF/C uni-filters (Packard) by filtration using a Packard harvester and washing with ice-cold wash buffer (50 mM Tris; pH 7.5). After drying, filter-retained radioactivity was detected by liquid scintillation counting. Ki values were calculated using Excel-Fit (Microsoft) and are the means of two determinations.
On the technique in general: Displacement assays read how much labelled ligand stays bound in the presence of the test substance.
For the compound `Cc1cccnc1C#Cc1c(-c2ccccc2)noc1C` [Example 39, 3-Methyl-2-(5-methyl-3-phenyl-isoxazol-4-ylethynyl)-pyridine], the Ki (in general, a dissociation constant, usually derived from enzyme kinetics or from competition with a known ligand) turned out to be 28.9 nM. With `Cc1onc(-c2ccccc2)c1C#Cc1cncc(N)n1` [Example 46, 6-(5-Methyl-3-phenyl-isoxazol-4-ylethynyl)-pyrazin-2-ylamine], the Ki amounted to 18.3 nM. The figure for `COC(=O)c1ccnc(C#Cc2c(-c3ccccc3)noc2C)c1` [Example 17, 2-(5-Methyl-3-phenyl-isoxazol-4-ylethynyl)-isonicotinic acid methyl ester] is 74.9 nM. In the case of `Cc1csc(NC(=O)c2ccnc(C#Cc3c(-c4ccccc4)noc3C)c2)n1` [Example 29, 2-(5-Methyl-3-phenyl-isoxazol-4-ylethynyl)-N-(4-methyl-thiazol-2-yl)-isonicotinamide], the Ki amounted to 90.1 nM. As to `Cc1onc(-c2ccc(Cl)cc2)c1C#Cc1ccccn1` [Example 59, 2-[3-(4-Chloro-phenyl)-5-methyl-isoxazol-4-ylethynyl]-pyridine], the Ki was 54.5 nM. As to `Cc1onc(-c2ccccc2)c1C#Cc1ccc(Cl)cn1` [Example 42, 5-Chloro-2-(5-methyl-3-phenyl-isoxazol-4-ylethynyl)-pyridine], the Ki worked out at 81.7 nM. For the compound `Cc1onc(-c2ccccc2)c1C#Cc1cccc(Cl)n1` [Example 30, 2-Chloro-6-(5-methyl-3-phenyl-isoxazol-4-ylethynyl)-pyridine], the inhibitory constant (Ki) turned out to be 71.9 nM. Take `Cc1onc(-c2ccccc2)c1C#Cc1cc(C(=O)NC2CCOCC2)ccn1` [Example 28, 2-(5-Methyl-3-phenyl-isoxazol-4-ylethynyl)-N-(tetrahydro-pyran-4-yl)-isonicotinamide]: the Ki was 20.7 nM.

With `Cc1onc(-c2ccccc2)c1C#Cc1nc(C)n(-c2cc(F)cc(F)c2)c1C` [Example 56, 4-[1-(3,5-Difluoro-phenyl)-2,5-dimethyl-1H-imidazol-4-ylethynyl]-5-methyl-3-phenyl-isoxazole], the Ki amounted to 23.5 nM. For `Cc1ccc(C#Cc2c(-c3ccccc3)noc2C)nn1` [Example 19, 3-Methyl-6-(5-methyl-3-phenyl-isoxazol-4-ylethynyl)-pyridazine], the Ki was 26.6 nM.

For the compound `Cc1ccnc(C#Cc2c(-c3ccccc3)noc2C)c1` [Example 37, 4-Methyl-2-(5-methyl-3-phenyl-isoxazol-4-ylethynyl)-pyridine], the inhibition constant (Ki) is 48 nM.

For `Cc1cccc(C#Cc2c(-c3ccccc3)noc2C)n1` [Example 35, 2-Methyl-6-(5-methyl-3-phenyl-isoxazol-4-ylethynyl)-pyridine], the Ki came to 39.3 nM. For the compound `Cc1onc(-c2ccccc2)c1C#Cc1cnc(N)cn1` [Example 47, 5-(5-Methyl-3-phenyl-isoxazol-4-ylethynyl)-pyrazin-2-ylamine], the inhibitory constant (Ki) came out at 37.2 nM. The figure for `COC(=O)c1ccccc1C#Cc1c(-c2ccccc2)noc1C` [Example 12, 2-(5-Methyl-3-phenyl-isoxazol-4-ylethynyl)-benzoic acid methyl ester] is 87.3 nM; for `Cc1ncc(C#Cc2c(-c3ccccc3)noc2C)[nH]1` [Example 22, 5-Methyl-4-(2-methyl-3H-imidazol-4-ylethynyl)-3-phenyl-isoxazole] it is 77.2 nM; for `Cc1cnc(C)c(C#Cc2c(-c3ccccc3)noc2C)n1` [Example 26, 2,5-Dimethyl-3-(5-methyl-3-phenyl-isoxazol-4-ylethynyl)-pyrazine] it is 10.4 nM. Regarding `Cc1c[nH]nc1C#Cc1c(-c2ccccc2)noc1C` [Example 23, 5-Methyl-4-(4-methyl-1H-pyrazol-3-ylethynyl)-3-phenyl-isoxazole], the Ki came to 53 nM. Regarding `Cc1onc(-c2ccccc2)c1C#Cc1ncc(C)n1-c1ccccc1` [Example 33, 5-Methyl-4-(5-methyl-1-phenyl-1H-imidazol-2-ylethynyl)-3-phenyl-isoxazole], the Ki was found to be 23.7 nM. The figure for `Cc1onc(-c2ccccc2)c1C#Cc1ccc(N)cn1` [Example 41, 6-(5-Methyl-3-phenyl-isoxazol-4-ylethynyl)-pyridin-3-ylamine] is 55.7 nM. As to `CCOC(=O)c1c(C)nc(C#Cc2c(-c3ccccc3)noc2C)n1C` [Example 50, 3,5-Dimethyl-2-(5-methyl-3-phenyl-isoxazol-4-ylethynyl)-3H-imidazole-4-carboxylic acid ethyl ester], the Ki stood at 7.3 nM.

As for `Cc1onc(-c2ccccc2)c1C#Cc1ccccc1N` [Example 14, 2-(5-Methyl-3-phenyl-isoxazol-4-ylethynyl)-phenylamine], the Ki was 38.4 nM. On to `CCOC(=O)c1nc(C)sc1C#Cc1c(-c2ccccc2)noc1C` [Example 24, 2-Methyl-5-(5-methyl-3-phenyl-isoxazol-4-ylethynyl)-thiazole-4-carboxylic acid ethyl ester], for which the Ki stood at 85.2 nM. With `Cc1ccc(C#Cc2c(-c3ccccc3)noc2C)nc1` [Example 31, 5-Methyl-2-(5-methyl-3-phenyl-isoxazol-4-ylethynyl)-pyridine], the Ki was determined as 45.5 nM. `Cc1onc(-c2ccccc2)c1C#Cc1cc(C(F)(F)F)ccn1` [Example 38, 2-(5-Methyl-3-phenyl-isoxazol-4-ylethynyl)-4-trifluoromethyl-pyridine]: the Ki stood at 37 nM. Consider `Cc1onc(-c2ccccc2)c1C#Cc1ccccn1` [Example 1, 2-(5-Methyl-3-phenyl-isoxazol-4-ylethynyl)-pyridine], for which the Ki came out at 47.9 nM. On to `Cc1onc(-c2ccccc2)c1C#Cc1cc(-c2ccc(F)cc2)n(C)n1` [Example 53, 4-[5-(4-Fluoro-phenyl)-1-methyl-1H-pyrazol-3-ylethynyl]-5-methyl-3-phenyl-isoxazole], for which the Ki is 52.6 nM. With `COC(=O)c1csc(C#Cc2c(-c3ccccc3)noc2C)n1` [Example 61, 2-(5-Methyl-3-phenyl-isoxazol-4-ylethynyl)-thiazole-4-carboxylic acid methyl ester] the figure was 31.9 nM; with `Cc1onc(-c2ccccc2)c1C#Cc1cnccn1` [Example 34, 2-(5-Methyl-3-phenyl-isoxazol-4-ylethynyl)-pyrazine], 59.2 nM; with `Cc1onc(-c2ccccc2)c1C#Cc1nc(C)n(-c2ccc(F)cc2)c1C` [Example 57, 4-[1-(4-Fluoro-phenyl)-2,5-dimethyl-1H-imidazol-4-ylethynyl]-5-methyl-3-phenyl-isoxazole], 39.1 nM.

On to `Cc1onc(-c2ccccc2)c1C#Cc1cnc2ccccc2n1` [Example 45, 2-(5-Methyl-3-phenyl-isoxazol-4-ylethynyl)-quinoxaline], for which the Ki is 84.4 nM. `Cc1onc(-c2ccccc2)c1C#Cc1cccc(C(=O)NC2CCOCC2)c1` [Example 8, 3-(5-Methyl-3-phenyl-isoxazol-4-ylethynyl)-N-(tetrahydro-pyran-4-yl)-benzamide]: the Ki was 91.6 nM. The figure for `Cc1onc(-c2ccccc2)c1C#Cc1nc2n(c1C)CCCC2` [Example 52, 3-Methyl-2-(5-methyl-3-phenyl-isoxazol-4-ylethynyl)-5,6,7,8-tetrahydro-imidazo[1,2-a]pyridine] is 15.5 nM. Regarding `CCc1ccnc(C#Cc2c(-c3ccccc3)noc2C)c1` [Example 44, 4-Ethyl-2-(5-methyl-3-phenyl-isoxazol-4-ylethynyl)-pyridine], the Ki is 38.9 nM. As for `Cc1onc(-c2ccccc2)c1C#Cc1nccn1C` [Example 21, 5-Methyl-4-(1-methyl-1H-imidazol-2-ylethynyl)-3-phenyl-isoxazole], the Ki was found to be 26 nM. For the compound `Cc1onc(-c2ccccc2)c1C#Cc1ncc(-c2ccccc2)n1C` [Example 32, 5-Methyl-4-(1-methyl-5-phenyl-1H-imidazol-2-ylethynyl)-3-phenyl-isoxazole], the Ki is 28.4 nM. `Cc1onc(-c2ccccc2)c1C#Cc1cc(C(=O)NCC2CC2)ccn1` [Example 27, N-Cyclopropylmethyl-2-(5-methyl-3-phenyl-isoxazol-4-ylethynyl)-isonicotinamide]: the Ki amounted to 39.8 nM.
